Reference: patent US12144881B2, “Cosmetic composition containing α-mangostin, method for preparation, and uses thereof” (priority 2018, dated 2024)

Key:
[1] = Oxygen Radical Absorbance Capacity (ORAC) assay against peroxynitrite; settings: trolox equivalent
Protocol: (§1) Test Method: Oxygen Radical Absorbance Capacity (ORAC) Assay Specific method: An extraction solution containing a solubilizing compound was prepared, the sample was added to the extraction solution to extract the antioxidants present in the sample, and a fluorescent probe was added to the extract, a free radical generator was added to the extract, to detect the decay of the fluorescence intensity of the probe in the sample over time, and calculate the oxidation resistance of the sample based on the decay of the fluorescence intensity of the probe in the sample. The results of ORAC are expressed as micromole trolox equivalent (μmole TE)/gram. Trolox is a vitamin E analog, which is an antioxidant standard substance.

[2] = Oxygen Radical Absorbance Capacity (ORAC) assay against hydroxyl radicals; settings: trolox equivalent
Protocol: as §1

[3] = Solubility in water; assay type: physicochemical; settings: extracted α-mangostin
[4] = ORAC 5.0 (sum of five ORAC results); settings: trolox equivalent
Protocol: Test Method: Oxygen Radical Absorbance Capacity (ORAC) Assay
as §1, with “Specific” for “Test Method: Oxygen Radical Absorbance Capacity (ORAC) Assay Specific”, “sample.” for “sample. The results of ORAC are expressed as micromole trolox equivalent (μmole TE)/gram. Trolox is a vitamin E analog, which is an antioxidant standard substance.”
Note: There are 5 main reactive oxygen species (ROS) in the human body: peroxy radicals, hydroxyl radicals, peroxynitrite, superoxide anions and singlet oxygen.
The results of ORAC are expressed as micromole trolox equivalent (μmole TE)/gram. Trolox is a vitamin E analog, which is an antioxidant standard substance.

[5] = Oxygen Radical Absorbance Capacity (ORAC) assay against peroxyl radicals; settings: trolox equivalent
Protocol: as §1

[6] = Photolysis of butyl methoxydibenzoylmethane under sunlight and its inhibition by α-mangostin (absorbance at 357 nm); assay type: physicochemical; settings: for M value: M=Bi/Ai, butyl methoxydibenzoylmethane remaining with α-mangostin vs control
Protocol: Instrument and equipment: Model 751-GW spectrophotometer; and FA1004 electronic balance. Reagents: butyl methoxydibenzoylmethane, from Shanghai SIMP Co., Ltd.; and an α-mangostin sample. • (6) Formulation of standard stock solutions of butyl methoxydibenzoylmethane and the sample: 20.0 mg of butyl methoxydibenzoylmethane and α-mangostin were weighed separately, and diluted with a specific mixed solvent (an acetone-water mixed solvent with a ratio by volume of acetone to water of 5:1, hereinafter referred to as mixed solvent) to a volume of 10 ml. • (7) Formulation of reference solutions of butyl methoxydibenzoylmethane and the sample: The mixed solvent was used as the reference solution of butyl methoxydibenzoylmethane. 0.1 ml of the standard stock solution of the α-mangostin sample was drawn, and diluted with the mixed solvent to a volume of 10 ml, as the reference solution of the sample. • (8) Formulation of standard working solutions (20 μg/ml) of butyl methoxydibenzoylmethane and the sample: 0.1 ml of the standard stock solution of butyl methoxydibenzoylmethane was drawn and diluted with the mixed solvent to a volume of 10 ml. 0.1 ml aliquots of the standard stock solution of the α-mangostin sample were drawn separately, and added separately to 0.1 ml aliquots of the standard stock solution of butyl methoxydibenzoylmethane, and then diluted with the mixed solvent to a volume of 10 ml. • (9) Reference solutions and standard working solutions of different concentrations of rutin were formulated according to Steps (2) and (3). • (10) Determination of the photolysis rate and photolysis inhibition rate of butyl methoxydibenzoylmethane: The absorbance of the standard working solution of butyl methoxydibenzoylmethane and the absorbance of butyl methoxydibenzoylmethane in the α-mangostin sample were measured at 357 nm. Then they were subjected to the sunlight exposure, and the absorbance thereof was measured every day. The photolysis rate, the photolysis inhibition rate and the M value of butyl methoxydibenzoylmethane were calculated according to the following formulas: % Photolysis rate=(A0−Ai)/A0×100% % Photolysis inhibition rate=[1−(B0−Bi)/(A0−Ai)]×100 M=Bi/Ai In the formulas, A0 is the absorbance of the standard working solution of butyl methoxydibenzoylmethane; Ai is the absorbance of the standard working solution of butyl methoxydibenzoylmethane after i days of light exposure; B0 is the absorbance of butyl methoxydibenzoylmethane in the standard working solution of the α-mangostin sample; Bi is the absorbance of butyl methoxydibenzoylmethane in the standard working solution of the α-mangostin sample after i days of light exposure; and M is the ratio of the amount of butyl methoxydibenzoylmethane remaining in the α-mangostin sample to the amount of butyl methoxydibenzoylmethane remaining in the control sample without the sample added. For the above α-mangostin sample and butyl methoxydibenzoylmethane, each was determined for the photolysis inhibition rate or the photolysis rate at the same exposure time, to obtain the curve of light exposure time vs. photolysis inhibition rate of the α-mangostin sample (FIG. 3) and the curve of light exposure time vs. photolysis rate of butyl methoxydibenzoylmethane (FIG. 2).

[7] = Oxygen Radical Absorbance Capacity (ORAC) assay against single oxygen; settings: trolox equivalent
Protocol: as §1

[8] = Oxygen Radical Absorbance Capacity (ORAC) assay against oxide anion; settings: trolox equivalent
Protocol: as §1

[9] = UV absorption spectra in the UV wavelength region; assay type: physicochemical; settings: FIG. 1, UVB 290-320 nm and UVA 320-400 nm
Excerpt: The present inventors tested the UV absorbance of α-mangostin, butyl methoxydibenzoylmethane and octyl salicylate in the UV wavelength region separately. […] Therefore, the α-mangostin has obvious advantages over the sunscreen agent octyl salicylate, and has a part of the absorption band which can be complementary to that of octyl salicylate, enhancing the UVB protection effect and increasing the SPF value.

COc1c(O)cc2oc3cc(O)c(CC=C(C)C)c(O)c3c(=O)c2c1CC=C(C)C [α-mangostin]
ORAC against peroxynitrite [1]: 404 μmole TE/gram | ORAC against hydroxyl radicals [2]: 9,055 μmole TE/gram | solubility in water (in words) [3]: poor solubility in water | ORAC 5.0 (sum of above) [4]: 31,468 μmole TE/gram | ORAC against peroxyl radicals [5]: 8,704 μmole TE/gram | M value ([6]; Day 1): 5.77 | M value ([6]; Day 2): 12.31 | inhibitory effect on the photolysis of butyl methoxydibenzoylmethane (in words) ([6]; sunlight): very good inhibitory effect | Inhibition rate of α-mangostin (photolysis inhibition rate) ([6]; sunlight, light exposure time 1 d, 20 μg/ml each): 84.3% | Inhibition rate of α-mangostin (photolysis inhibition rate) ([6]; sunlight, light exposure time 2 d): 82.9% | Inhibition rate of α-mangostin (photolysis inhibition rate) ([6]; sunlight, light exposure time 3 d): 82.1% | Inhibition rate of α-mangostin (photolysis inhibition rate) ([6]; sunlight, light exposure time 4 d): 80.5% | Inhibition rate of α-mangostin (photolysis inhibition rate) ([6]; sunlight, light exposure time 5 d): 76.4% | ORAC against single oxygen [7]: 262 μmole TE/gram | ORAC against oxide anion [8]: 13,043 μmole TE/gram | UV absorption (in words) [9]: relatively strong absorption from the UVB range of 290-320 nm to the UVA range of 320-400 nm
